This experiment has as its target T1, human DP2 receptor (Homo sapiens, UniProt Q9Y5Y4).
T1 construct: expressed in transfected cells
T1 sequence (Q9Y5Y4 1-395): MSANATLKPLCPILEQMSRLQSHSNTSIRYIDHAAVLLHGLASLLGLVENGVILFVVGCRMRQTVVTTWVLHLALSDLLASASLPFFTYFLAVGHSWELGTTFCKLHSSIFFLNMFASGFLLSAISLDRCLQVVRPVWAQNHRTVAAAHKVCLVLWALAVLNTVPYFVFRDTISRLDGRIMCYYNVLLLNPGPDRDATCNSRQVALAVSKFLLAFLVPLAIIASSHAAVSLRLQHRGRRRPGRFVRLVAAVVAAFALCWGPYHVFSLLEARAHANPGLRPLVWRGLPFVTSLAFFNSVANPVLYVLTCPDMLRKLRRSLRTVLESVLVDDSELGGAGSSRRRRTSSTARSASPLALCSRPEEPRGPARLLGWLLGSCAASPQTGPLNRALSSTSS
In words: DP2/CRTH2 radioligand binding assay using [3H]PGD2. The conditions noted are these: hDP2 (CRTH2) binding assay, membranes of HEK293 cells expressing recombinant human DP2. How it is done: The ability of a compound to bind to the human DP2 receptor is assessed via a radioligand binding assay using [^3H]PGD2. HEK293 cells stably expressing recombinant human DP2 are resuspended in 10 mM Hepes, 7.4 containing 1 mM DTT, lysed and centrifuged at 75,000×g to pellet the membranes. The membranes are resuspended in 10 mM Hepes, 7.4 containing 1 mM DTT and 10% glycerol to approximately 5 mg protein/ml. Membranes (2-10 μg protein/well) are incubated in 96-well plates with 1 nM [^3H]PGD2 and test compound in Assay Buffer (50 mM Hepes, 10 mM MnCl2, 1 mM EDTA, plus or minus 0.2% human serum albumin, pH 7.4) for 60 minutes at room temperature. The reactions are terminated by rapid filtration through Whatman GF/C glass fibre filter plates. The filter plates were pre-soaked in 0.33% polyethylenimine for 30 minutes at room temperature then washed in Wash Buffer (50 mM Hepes, 0.5 M NaCl pH 7.4) prior to harvesting. After harvesting, the filter plates are washed 3 times with 1 ml cold Wash Buffer then dried. Scintillant is then added to the plates and the radioactivity retained on the filters is determined on a Packard TopCount (Perkin Elmer). Specific binding is determined as total radioactive binding minus non-specific binding in the presence of 10 μM PGD2. IC50s were determined using GraphPad prism analysis of drug titration curves.
What is called IC50 is the concentration that gives 50% inhibition. As to `CCN(Cc1cc(C(F)(F)F)ccc1Oc1cccc(CC(=O)O)c1)S(=O)(=O)c1ccc2ccccc2c1` [Compound 1-30, [3-(2-{[Ethyl-(naphthalene-2-sulfonyl)-amino]-methyl}-4-trifluoromethyl-phenoxy)-phenyl]-acetic acid], the IC50 is < 300 nM.

For `CCN(Cc1cc(C(F)(F)F)ccc1Oc1cccc(CC(=O)O)c1)S(=O)(=O)c1ccc(Br)cc1` [Compound 1-31, [3-(2-{[(4-Bromo-benzenesulfonyl)-ethyl-amino]-methyl}-4-trifluoromethyl-phenoxy)-phenyl]-acetic acid], the IC50 is < 300 nM.

As to `CCN(Cc1cc(C(F)(F)F)ccc1Oc1cccc(CC(=O)O)c1)S(=O)(=O)c1ccc(Nc2cccc(C)c2)cc1` [Compound 1-32, [3-(2-{[Ethyl-(4-m-tolylamino-benzenesulfonyl)-amino]-methyl}-4-trifluoromethyl-phenoxy)-phenyl]-acetic acid], the IC50 was < 300 nM. For the compound `CCN(Cc1cc(C(F)(F)F)ccc1Oc1cccc(CC(=O)O)c1)S(=O)(=O)c1ccc(N(C)c2cccc(C)c2)cc1` [Compound 1-33, {3-[2-({Ethyl-[4-(methyl-m-tolyl-amino)-benzenesulfonyl]-amino}-methyl)-4-trifluoromethyl-phenoxy]-phenyl}-acetic acid], the IC50 is < 300 nM. `CCN(Cc1cc(C(F)(F)F)ccc1Oc1cc(CC(=O)O)ccc1OC)C(C)=O` [Compound 1-34, (3-{2-[(Acetyl-ethyl-amino)-methyl]-4-trifluoromethyl-phenoxy}-4-methoxy-phenyl)-acetic acid]: the IC50 was > 300 nM. As for `COc1ccc(CC(=O)O)cc1Oc1ccc(C(F)(F)F)cc1CN(Cc1ccccc1)C(C)=O` [Compound 1-35, (3-{2-[(Acetyl-benzyl-amino)-methyl]-4-trifluoromethyl-phenoxy}-4-methoxy-phenyl)-acetic acid], the IC50 is < 300 nM. For the compound `CCN(Cc1cc(C(F)(F)F)ccc1Oc1cc(CC(=O)O)ccc1OC)C(=O)OC` [Compound 1-36, (3-{2-[(Ethyl-methoxycarbonyl-amino)-methyl]-4-trifluoromethyl-phenoxy}-4-methoxy-phenyl)-acetic acid], the half-inhibitory concentration (IC50) was > 300 nM. The result for `COC(=O)N(Cc1ccccc1)Cc1cc(C(F)(F)F)ccc1Oc1cc(CC(=O)O)ccc1OC` [Compound 1-37, (3-{2-[(Benzyl-methoxycarbonyl-amino)-methyl]-4-trifluoromethyl-phenoxy}-4-methoxy-phenyl)-acetic acid] reads < 300 nM.

Regarding `COC(=O)N(Cc1cc(NC(C)=O)ccc1Oc1cccc(CC(=O)O)c1)[C@@H](C)Cc1ccccc1` [Compound 1-38, [3-(4-Acetylamino-2-{[methoxycarbonyl-((S)-1-methyl-2-phenyl-ethyl)-amino]-methyl}-phenoxy)-phenyl]-acetic acid], the 50% inhibitory concentration (IC50) is < 300 nM. Regarding `COC(=O)N(Cc1cc(N(C)C(C)=O)ccc1Oc1cccc(CC(=O)O)c1)[C@@H](C)Cc1ccccc1` [Compound 1-39, [3-(4-(Acetyl-methyl-amino)-2-{[methoxycarbonyl-((S)-1-methyl-2-phenyl-ethyl)-amino]-methyl}-phenoxy)-phenyl]-acetic acid], the IC50 was > 300 nM. `COC(=O)N(Cc1cc(N(C)C(C)=O)ccc1Oc1cccc(C(C)C(=O)O)c1)[C@@H](C)Cc1ccccc1` (stereo partly drawn) [Compound 1-40, 2-[3-(4-(Acetyl-methyl-amino)-2-{[methoxycarbonyl-((S)-1-methyl-2-phenyl-ethyl)-amino]-methyl}-phenoxy)-phenyl]-propionic acid]: the IC50 was > 300 nM. `COC(=O)N(Cc1cc(NS(C)(=O)=O)ccc1Oc1cccc(CC(=O)O)c1)[C@@H](C)Cc1ccccc1` [Compound 1-41, [3-(4-Methanesulfonylamino-2-{[methoxycarbonyl-((S)-1-methyl-2-phenyl-ethyl)amino]-methyl}-phenoxy)-phenyl]-acetic acid]: the half-inhibitory concentration (IC50) is < 300 nM.

For the compound `COC(=O)N(Cc1cc(N(C)S(C)(=O)=O)ccc1Oc1cccc(CC(=O)O)c1)[C@@H](C)Cc1ccccc1` [Compound 1-42, [3-(4-(Methanesulfonyl-methyl-amino)-2-{[methoxycarbonyl-((S)-1-methyl-2-phenyl-ethyl)-amino]-methyl}-phenoxy)-phenyl]-acetic acid], the IC50 is > 300 nM. Consider `COC(=O)N(Cc1cc(N(C)S(C)(=O)=O)ccc1Oc1cccc(C(C)C(=O)O)c1)[C@@H](C)Cc1ccccc1` (stereo partly drawn) [Compound 1-43, 2-[3-(4-(Methanesulfonyl-methyl-amino)-2-{[methoxycarbonyl-((S)-1-methyl-2-phenyl-ethyl)-amino]-methyl}-phenoxy)-phenyl]-propionic acid], for which the IC50 is > 1000 nM. On to `CCN(Cc1cc(NC(=O)c2ccc(Cl)cc2)ccc1Oc1cc(CC(=O)O)ccc1OC)C(=O)OCc1ccccc1` [Compound 1-44, {3-[2-[(Benzyloxycarbonyl-ethyl-amino)-methyl]-4-(4-chloro-benzoylamino)-phenoxy]-4-methoxy-phenyl}-acetic acid], for which the IC50 is < 300 nM.

Regarding `CCN(Cc1cc(NC(=O)C(C)(C)C)ccc1Oc1cc(CC(=O)O)ccc1OC)C(C)=O` [Compound 1-45, {3-[2-[(Acetyl-ethyl-amino)-methyl]-4-(2,2-dimethyl-propionylamino)-phenoxy]-4-methoxy-phenyl}-acetic acid], the IC50 was < 300 nM. Take `CCN(Cc1cc(NC(=O)c2ccc(Cl)cc2)ccc1Oc1cc(CC(=O)O)ccc1OC)C(C)=O` [Compound 1-46, {3-[2-[(Acetyl-ethyl-amino)-methyl]-4-(4-chloro-benzoylamino)-phenoxy]-4-methoxy-phenyl}-acetic acid]: the half-inhibitory concentration (IC50) is < 300 nM.

With `CCN(Cc1cc(NC(=O)C(C)(C)C)ccc1Oc1cc(CC(=O)O)ccc1OC)C(=O)C1CC1` [Compound 1-47, {3-[2-[(Cyclopropanecarbonyl-ethyl-amino)-methyl]-4-(2,2-dimethyl-propionylamino)-phenoxy]-4-methoxy-phenyl}-acetic acid], the half-maximal inhibitory concentration (IC50) is < 300 nM. For `CCN(Cc1cc(NC(=O)c2ccc(Cl)cc2)ccc1Oc1cc(CC(=O)O)ccc1OC)C(=O)C1CC1` [Compound 1-48, (3-{4-(4-Chloro-benzoylamino)-2-[(cyclopropanecarbonyl-ethyl-amino)-methyl]-phenoxy}-4-methoxy-phenyl)-acetic acid], the IC50 was < 300 nM.

As to `O=C(O)CCn1c2c(c3ccccc31)C[C@H](NS(=O)(=O)c1ccc(F)cc1)CC2` [Ramatroban, reference compound], the IC50 is > 300 nM.

Values taken from US8426449B2, “Aminoalkylphenyl antagonists of prostaglandin D2 receptors” (Panmira Pharmaceuticals, LLC, priority 2008, dated 2013).
